Measurements: ChEMBL document CHEMBL1201862, “PubChem BioAssay data set” (2004)
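Compound exposure: 48 hours, 5 concentrations, 96-well plates. The concentration for 50% growth inhibition is given as GI50.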 Active and inactive are the calls of the source. No stated cut-off is given here; in the data, active = GI50 up to about 1.1 µM and inactive = higher.

Experiments:
Assay in all cases: NCI-60 cell line screen, 48 h
SF-268 = test system: SF-268
RXF 631 = test system: RXF 631
ACHN = test system: ACHN
A549 = test system: A549
HOP-18 = test system: HOP-18
SK-MEL-5 = test system: SK-MEL-5
CAKI-1 = test system: CAKI-1
LOX IMVI = test system: LOX IMVI
UACC-257 = test system: UACC-257
CCRF-CEM = test system: CCRF-CEM
DMS-114 = test system: DMS-114
M19-MEL = test system: M19-MEL
COLO 205 = test system: COLO 205
A498 = test system: A498
SK-MEL-28 = test system: SK-MEL-28
M14 = test system: M14
HCT-116 = test system: HCT-116
SK-OV-3 = test system: SK-OV-3
SW-620 = test system: SW-620
KM-20L2 = test system: KM-20L2
IGROV-1 = test system: IGROV-1
UO-31 = test system: UO-31
UACC-62 = test system: UACC-62
SF-295 = test system: SF-295
Malme-3M = test system: Malme-3M
OVCAR-3 = test system: OVCAR-3
NCI-H460 = test system: NCI-H460
NCI-H23 = test system: NCI-H23
U-251 = test system: U-251
XF498 = test system: XF498
K562 = test system: K562
SNB-19 = test system: SNB-19
SR = test system: SR
LXFL 529 = test system: LXFL 529
SN12C = test system: SN12C
SF-539 = test system: SF-539
SNB-75 = test system: SNB-75
HOP-62 = test system: HOP-62
NCI-H522 = test system: NCI-H522
NCI-H226 = test system: NCI-H226
MOLT-4 = test system: MOLT-4
OVCAR-4 = test system: OVCAR-4
OVCAR-8 = test system: OVCAR-8
SNB-78 = test system: SNB-78
HL-60 = test system: HL-60
TK-10 = test system: TK-10
HOP-92 = test system: HOP-92
RXF 393 = test system: RXF 393
786-0 = test system: 786-0
HT-29 = test system: HT-29
EKVX = test system: EKVX
KM12 = test system: KM12
PC-3 = test system: PC-3
HCT-15 = test system: HCT-15
RPMI-8226 = test system: RPMI-8226
SK-MEL-2 = test system: SK-MEL-2
MDA-MB-231 = test system: MDA-MB-231
HCC 2998 = test system: HCC 2998
DMS-273 = test system: DMS-273
BT-549 = test system: BT-549

Question: What does the source list for `CC1CC[C@]2(C(=O)O)CCC3(C)C(=CC(=O)C4[C@@]5(C)CCC(=O)C(C)(C)C5CC[C@]43C)[C@@H]2[C@H]1C` (some centres not stated)?
Answer: GI50 (SF-268): 54.3 µM (inactive); GI50 (RXF 631): 27.3 µM (inactive); GI50 (ACHN): 21 µM (inactive); GI50 (A549): 24.5 µM (inactive); GI50 (HOP-18): 31.9 µM (inactive); GI50 (SK-MEL-5): 20.7 µM (inactive); GI50 (CAKI-1): 39.8 µM (inactive); GI50 (LOX IMVI): 15.9 µM (inactive); GI50 (UACC-257): 23.2 µM (inactive); GI50 (CCRF-CEM): 14.4 µM (inactive); GI50 (DMS-114): 19.7 µM (inactive); GI50 (M19-MEL): 23.3 µM (inactive); GI50 (COLO 205): 17.6 µM (inactive); GI50 (A498): 32.4 µM (inactive); GI50 (SK-MEL-28): 18 µM (inactive); GI50 (M14): 29.5 µM (inactive); GI50 (HCT-116): 18.1 µM (inactive); GI50 (SK-OV-3): 34.5 µM (inactive); GI50 (SW-620): 39.9 µM (inactive); GI50 (KM-20L2): > 10 µM (inactive); GI50 (IGROV-1): 26.9 µM (inactive); GI50 (UO-31): 12.5 µM (inactive); GI50 (UACC-62): 13.2 µM (inactive); GI50 (SF-295): 31 µM (inactive); GI50 (Malme-3M): 28.8 µM (inactive); GI50 (OVCAR-3): 17.4 µM (inactive); GI50 (NCI-H460): 26.2 µM (inactive); GI50 (NCI-H23): 25.1 µM (inactive); GI50 (U-251): 27.4 µM (inactive); GI50 (XF498): 10 µM (inactive); GI50 (K562): 23.6 µM (inactive); GI50 (SNB-19): 40.5 µM (inactive); GI50 (SR): 10.9 µM (inactive); GI50 (LXFL 529): 18.6 µM (inactive); GI50 (SN12C): 29.9 µM (inactive); GI50 (SF-539): 18.9 µM (inactive); GI50 (SNB-75): 35.5 µM (inactive); GI50 (HOP-62): 22.1 µM (inactive); GI50 (NCI-H522): 18.4 µM (inactive); GI50 (NCI-H226): 25.2 µM (inactive); GI50 (MOLT-4): 11.5 µM (inactive); GI50 (OVCAR-4): 35.2 µM (inactive); GI50 (OVCAR-8): 29.4 µM (inactive); GI50 (SNB-78): 46.2 µM (inactive); GI50 (HL-60): 4.75 µM (inactive); GI50 (TK-10): 28.3 µM (inactive); GI50 (HOP-92): 25 µM (inactive); GI50 (RXF 393): 17.8 µM (inactive); GI50 (786-0): 31.8 µM (inactive); GI50 (HT-29): 28.4 µM (inactive); GI50 (EKVX): 31.6 µM (inactive); GI50 (KM12): 18.7 µM (inactive)

Question: Which GI50 (SF-268) does the source give for `CC1CCC2C(C)C(=O)OC3OC4(C)CCC1C32OO4` (configuration not stated) here?
Answer: The GI50 was > 100 µM (inactive).

Question: What about the GI50 (RXF 631) of the same compound?
Answer: The GI50 was > 100 µM (inactive).

Question: What about the GI50 (A549) of the same compound?
Answer: Its GI50 is 89.1 µM (inactive).

Question: What about the GI50 (HOP-18) of the same compound?
Answer: The GI50 was 61.8 µM (inactive).

Question: What about the GI50 (SK-MEL-5) of the same compound?
Answer: The GI50 was > 96.2 µM (inactive).

Question: What about the GI50 (CAKI-1) of the same compound?
Answer: Its GI50 is > 100 µM (inactive).

Question: And the GI50 (LOX IMVI)?
Answer: Its GI50 is 97.9 µM (inactive).

Question: What about the GI50 (PC-3) of the same compound?
Answer: Its GI50 is 66.8 µM (inactive).

Question: And the GI50 (CCRF-CEM)?
Answer: Its GI50 is 83 µM (inactive).

Question: What about the GI50 (DMS-114) of the same compound?
Answer: Its GI50 is > 80.4 µM (inactive).

Question: What about the GI50 (HCT-15) of the same compound?
Answer: Its GI50 is 98.4 µM.

Question: What about the GI50 (M19-MEL) of the same compound?
Answer: Its GI50 is > 100 µM (inactive).

Question: What about the GI50 (M14) of the same compound?
Answer: The GI50 was > 100 µM (inactive).

Question: What about the GI50 (HCT-116) of the same compound?
Answer: Its GI50 is 81.7 µM (inactive).

Question: And the GI50 (SK-OV-3)?
Answer: The GI50 was > 100 µM (inactive).

Question: And the GI50 (KM-20L2)?
Answer: Its GI50 is > 100 µM (inactive).

Question: And the GI50 (RPMI-8226)?
Answer: Its GI50 is 53.2 µM (inactive).

Question: And the GI50 (SK-MEL-2)?
Answer: Its GI50 is > 100 µM (inactive).

Question: What about the GI50 (IGROV-1) of the same compound?
Answer: The GI50 was > 88.9 µM (inactive).

Question: What about the GI50 (UO-31) of the same compound?
Answer: The GI50 was 82.2 µM (inactive).

Question: And the GI50 (SF-295)?
Answer: Its GI50 is > 100 µM (inactive).

Question: What about the GI50 (Malme-3M) of the same compound?
Answer: Its GI50 is > 100 µM (inactive).

Question: And the GI50 (OVCAR-3)?
Answer: Its GI50 is > 67.3 µM (inactive).

Question: And the GI50 (MDA-MB-231)?
Answer: Its GI50 is 62.4 µM (inactive).

Question: What about the GI50 (XF498) of the same compound?
Answer: The GI50 was > 100 µM (inactive).

Question: What about the GI50 (K562) of the same compound?
Answer: Its GI50 is 33.1 µM (inactive).

Question: What about the GI50 (HCC 2998) of the same compound?
Answer: The GI50 was > 100 µM (inactive).

Question: What about the GI50 (LXFL 529) of the same compound?
Answer: The GI50 was 65.5 µM (inactive).

Question: What about the GI50 (SN12C) of the same compound?
Answer: Its GI50 is > 92.3 µM (inactive).

Question: And the GI50 (SF-539)?
Answer: The GI50 was > 100 µM (inactive).

Question: And the GI50 (SNB-75)?
Answer: The GI50 was 61.7 µM (inactive).

Question: What about the GI50 (NCI-H522) of the same compound?
Answer: Its GI50 is 45.1 µM (inactive).

Question: What about the GI50 (MOLT-4) of the same compound?
Answer: Its GI50 is 66.1 µM (inactive).

Question: And the GI50 (OVCAR-4)?
Answer: The GI50 was > 72.8 µM (inactive).

Question: And the GI50 (DMS-273)?
Answer: The GI50 was > 100 µM (inactive).

Question: And the GI50 (SNB-78)?
Answer: Its GI50 is > 100 µM (inactive).

Question: And the GI50 (HL-60)?
Answer: Its GI50 is 37.4 µM (inactive).

Question: What about the GI50 (BT-549) of the same compound?
Answer: Its GI50 is 86.5 µM (inactive).

Question: And the GI50 (RXF 393)?
Answer: The GI50 was 72.9 µM (inactive).

Question: What about the GI50 (EKVX) of the same compound?
Answer: Its GI50 is > 97.1 µM (inactive).
